Test results: patent US20130252983A1, “ACTIVATING PHOSPHORYLATION SITE ON GLUTAMINASE C” (CORNELL UNIVERSITY, priority 2010, published 2013)

Key:
[1] = system: normal NIH 3T3 cells; test: Growth and morphology of control NIH 3T3 cells; assay type: cell-based, mouse; conditions: 10% calf serum; 10 μM (growth), 5 μM (morphology)
Experimental: FIGS. 1A-E illustrate that the small molecule 968 inhibits cellular transformation. […] Cells were fixed and stained with crystal violet for counting of foci. Right: 968 was serially diluted (10, 5, 2.5, and 1.25 μM) and evaluated for its ability to inhibit focus formation. […] After 6 days, the cells were counted. 100% represents the number of Dbl-transformed cells counted in the absence of 968 (27.5×10^4 cells). Data represent the average of 3 experiments (±s.d.). […] At the indicated times, the cells were counted. Data represent the average of 3 experiments (±s.d.).

[2] = system: NIH 3T3 cells stably expressing Cdc42(F28L) and transiently expressing mouse GAC; test: Focus formation of Cdc42(F28L) cells transiently expressing GAC; assay type: cell-based
Description: FIGS. 4A-E illustrate the role of glutaminase C activity in cellular transformation. […] Data represent the average of 3 experiments (±s.d.). […] Data represent the average of 3 experiments (±s.d.). […] 100% represents the activity measured in untreated Dbl-transformed cells. The data represent the average of 2 experiments. […] 100% represents the activity measured in untreated SKBR3 cells. The data represent the average of 2 experiments. […] Data represent the average of 3 experiments (±s.d.).

[3] = system: MDA-MB231 cells; test: Soft-agar colony formation, MDA-MB231; assay type: cell-based, human; conditions: 10 μM
Experimental: (§1) FIGS. 2A-G illustrate effects of 968 on the transforming activity of constitutively active Rho GTPases and human breast cancer cells. […] Cells were scored after 14 days and plotted as the percentage of the total number of colonies greater than 50 μm in diameter. Data represent the average of 3 experiments (±s.d.). […] Data represent the average of 3 experiments (±s.d.). […] Data represent the average of 3 experiments (±s.d.). […] After 24 hours at 37° C., the migratory cells were fixed, stained with GIEMSA, and counted. Data represent the average of 3 experiments (±s.d.). […] Data represent the average of 3 experiments (±s.d.). […] Data represent the average of 3 experiments (±s.d.). […] Data represent the average of 3 experiments (±s.d.).

[4] = system: SKBR3 cells; test: Soft-agar colony formation, SKBR3; assay type: cell-based, human; conditions: 10 μM
Experimental: as §1

[5] = system: NIH 3T3 cells stably expressing Cdc42(F28L), Rac(F28L), RhoC(F30L); test: Invasion through growth factor-reduced Matri-gel; assay type: cell-based, mouse; conditions: 10 μM, 24 hours
Experimental: as §1

## CN(C)c1ccc(C2Nc3ccc4ccccc4c3C3=C2C(=O)CC(C)(C)C3)cc1Br (centres unmarked) [Compound 968, 5-[3-bromo-4-(dimethylamino)phenyl]-2,2-dimethyl-2,3,5,6-tetrahydrobenzo[a]]
[1]
  effect on growth or morphology of normal NIH 3T3 cells: no significant effects
[2]
  focus-forming activity: can be blocked
[3]
  colony formation in soft agar: inhibits the ability
[4]
  colony formation in soft agar: inhibits the ability
[5]
  invasive activity: inhibiting their invasive activity
